Test results taken from patent publication US10927097B2, “Indole compound as inhibitor of necrosis” (LG CHEM, LTD., priority 2013, dated 2021).

These molecules were tested on primary hepatocytes isolated from rats (assay: Hepatocyte protective effect against doxorubicin treatment (cell viability, WST-1)). Details: Hepatocyte, primary rat hepatocytes pretreated with compound for 30 min, viability by WST-1 after 24-48 hours.
Format: cell-based
Protocol: Various endogenous/exogenous attacks on cells trigger the mechanisms of cell death which is broadly classified into two types—i.e., apoptosis or necrosis. Using these cell death mechanisms, in the present experimental example, primary hepatocytes isolated from rats were treated with drugs which were clinically shown to result in serious side-effects of hepatocyte toxicity or various chemicals which derive cell death, and the compounds synthesized in the Examples were estimated for their hepatocyte protective effects, after 24-48 hours. The substances used to cause hepatocyte death include CCl4, ActD, H2O2, doxorubicin, anti-Fas Ab/Actinomycin D, acetaminophen, EtOH, CdCl2, palmitate, stearate, cyclophosphamide, terfenadine, diclofenac, simvastatin, and adefovir. Primary hepatocytes were isolated using the method of Seglen P O (Experimental Cell Research 74 (1972), pp. 450-454). Briefly, hepatocytes were isolated according to the two-step collagenase perfusion method, and dead cells were removed by low speed (500 rpm) centrifugation for 10 min using percoll gradient (Kreamer B L et al., In Vitro Cellular & Developmental Biology 22 (1986), pp. 201-211). During this step, the viability of cells was maintained 90% or above. The cells were suspended in HepatoZYME media (Gibco BRL), and the number of cells was counted. 1.5×10^4 cells in 100 μl were placed into the collagen-coated 96-well plate (BD Biocoat), and adhered on the bottom for 3-4 hours.
In order to assess the hepatocyte protective effect, the above adhered cells were pretreated with the Example compounds for 30 min. At this time, the concentration of the Example compounds was serially diluted by 2-fold or 3-fold over 5 steps starting from 30 μM, 10 μM or 1 μM depending on the experiments, and the final concentration of DMSO was adjusted to 0.2%. 30 min after the treatment by the compounds, the cells were treated by the substances causing hepatocyte death or hepatotoxic drugs at the concentrations indicated in Table 1. After 24-48 hours, the viability of cells was determined to estimate the hepatocyte protective effect. The viability of cells was determined using the WST-1 (MK-400, Takeda) method by the absorbance at 440 nm. Hepatocyte protective effects of the Example compounds were represented by “EC50” which was calculated from measured values. “EC50” herein means the concentration of the compound at which 50% of maximum protective effect is observed in the experiment.
O=C1CN(Cc2cc3cc(Cl)cc(NC4CCCC4)c3[nH]2)CCN1 [Example 1, 4-(5-Chloro-7-cyclopentylamino-1H-indol-2-ylmethyl)-piperazin-2-one] showed an EC50 of 160 nM. In the case of CC(=O)N1CCC(Nc2cc(Cl)cc3cc(CCN4CCNC(=O)C4)[nH]c23)CC1 [Example 3, 4-{2-[7-(1-Acetyl-piperidin-4-ylamino)-5-chloro-1H-indol-2-yl]-ethyl}-piperazin-2-one], the EC50 is reported as 270 nM. Molecule Cc1cc(NCC2CCOCC2)c2[nH]c(CN3CCS(=O)(=O)CC3)cc2c1 [Example 7, [2-(1,1-Dioxothiomorpholin-4-ylmethyl)-5-methyl-1H-indol-7-yl]-(tetrahydropyran-4-ylmethyl)-amine] has an EC50 of 440 nM. With Cc1cc(NC2CCCC2)c2[nH]c(CN3CCS(=O)(=O)CC3)cc2c1 [Example 8, Cyclopentyl-[2-(1,1-dioxothiomorpholin-4-ylmethyl)-5-methyl-1H-indol-7-yl]-amine] the EC50 was 240 nM. In the case of O=C1CN(CCc2cc3cc(Cl)cc(NCc4ccccc4)c3[nH]2)CCN1 [Example 14, 4-[2-(7-Benzylamino-5-chloro-1H-indol-2-yl)-ethyl]-piperazin-2-one], the EC50 is reported as 300 nM. O=S1(=O)CCN(CCc2cc3cc(Cl)cc(NC4CCCC4)c3[nH]2)CC1 [Example 19, {5-Chloro-2-[2-(1,1-dioxothiomorpholin-4-yl)-ethyl]-1H-indol-7-yl}-cyclopentyl-amine] showed an EC50 of 270 nM. Molecule O=C1CN(CCc2cc3cc(Cl)cc(NCC4CCOCC4)c3[nH]2)CCN1 [Example 22, 4-(2-{5-Chloro-7-[(tetrahydropyran-4-ylmethyl)-amino]-1H-indol-2-yl}-ethyl)-piperazin-2-one] has an EC50 of 900 nM. Clc1cc(NC2CCCC2)c2[nH]c(C3CCNCC3)cc2c1 [Example 48, (5-Chloro-2-piperidin-4-yl-1H-indol-7-yl)-cyclopentyl-amine] showed an EC50 of 210 nM.

Same assay, conditions: primary rat hepatocytes pretreated with compound for 30 min, viability by WST-1 after 24-48 hours
Molecule “1-(4-{5-Chloro-2-[2-(3-trifluoromethyl-5,6,7,8-tetrahydro-[1,2,4]triazolo[4,3-a]pyrazin-1-yl)-ethyl]-1H-indol-7-yl}-piperidin-1-yl)-ethanone [Example 13]” has an EC50 of 1800 nM. “4-[5-Methyl-7-(tetrahydropyran-4-ylmethylamino)-1H-indol-2-ylmethyl)-piperazin-2-one [Example 9]” showed an EC50 of 250 nM. CS(=O)(=O)N1CCC(Nc2cc(Cl)cc3cc(CCN4CCn5c(nnc5C(F)(F)F)C4)[nH]c23)CC1 [Example 12] showed an EC50 of 600 nM. With O=S1(=O)CCN(CCc2cc3cc(Cl)cc(NC4CCOCC4)c3[nH]2)CC1 [Example 18] the EC50 was 240 nM.
